Assay: recombinant UMI read abundance after kanamycin selection (control-corrected) (log10(CPM+1)); higher = more efficient recombination; extreme values may be limits of the assay; sequences stand for … in AGTGCAGAGAAAATCGGCCAGTTTTCTCTGCCTGCAGTCCGCATGCCGTGGGACCCCTTGGGTTCTAACCTGTTGCCTAGATTTATGCAGCGGACTGCCTTTCTCCCAAAGTGATAAACCGG…AGGTTGGTTTCACT; site = the 11-nt donor
Outline: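 Values, expressed as log10(CPM+1), derive from recombinant UMI counts converted to CPM, averaged across replicates and scaled by control-derived factors. Plating was with IPTG (0.07 mM) plus kanamycin or unselected, two replicates each. The screen pooled donor and donor-binding-loop pairs for the IS621 bridge recombinase in Escherichia coli.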
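Also: IS621 bridge recombinase in Escherichia coli cells against a fixed T5 target plasmid.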

Row | Sequence | recombinant UMI read abundance (log10)
1 | TCATAGACATGGACCGGTTTTCCCGGTAATCCGTATTTGCG (site TCACAGACTCG) | 0.285
2 | GTAGGTACATGGACCGGTTTTCCCGGTAATCCGTATTTGTC (site GTAGGTACTGC) | 0
3 | TCGAACGCATGGACCGGTTTTCCCGGTAATCCGTATTTGCG (site TCGAACGCTCG) | 0.00434
4 | CGCGTTCCATGGACCGGTTTTCCCGGTAATCCGTATTTGGA (site CGCGTTCCTTC) | 0
5 | ACAGTATCATGGACCGGTTTTCCCGGTAATCCGTATTTGCA (site ACATTATCTTG) | 1.22
6 | TAAAGCCCATGGACCGGTTTTCCCGGTAATCCGTATTTGTA (site TAAAGTCCTTA) | 0.0272
7 | CCTATATCATGGACCGGTTTTCCCGGTAATCCGTATTTGTC (site CCGATATCTGA) | 0
8 | CACGGTCCATGGACCGGTTTTCCCGGTAATCCGTATTTGCA (site CCCGGTCCTTG) | 0
9 | CCTAGTGCATGGACCGGTTTTCCCGGTAATCCGTATTTGGT (site TCTAGTGCTAC) | 0.0125
10 | GGAGTGGCATGGACCGGTTTTCCCGGTAATCCGTATTTGGA (site GGAGTGGCTTC) | 0.645
11 | AGGATGTCATGGACCGGTTTTCCCGGTAATCCGTATTTGCA (site AGGAAGACTTG) | 0.00922
12 | ATCTATACATGGACCGGTTTTCCCGGTAATCCGTATTTGGC (site ATCTATACTGG) | 0
13 | GGGACATCATGGACCGGTTTTCCCGGTAATCCGTATTTGCT (site CGGACATCTAG) | 0
14 | AATGTAACATGGACCGGTTTTCCCGGTAATCCGTATTTGCT (site AATGTAACTCG) | 0.0789
15 | GGGTCGGCATGGACCGGTTTTCCCGGTAATCCGTATTTGGC (site GGGTCGGCTGC) | 2.18
16 | TGTGCACCATGGACCGGTTTTCCCGGTAATCCGTATTTGAC (site TGTCCACCTGT) | 0.0317
17 | GCTAGAACATGGACCGGTTTTCCCGGTAATCCGTATTTGAG (site TCTAGAACTCT) | 0.815
18 | GCTGGCCCATGGACCGGTTTTCCCGGTAATCCGTATTTGAT (site GCTAGCCCTAT) | 0.0226
19 | AGGACTACATGGACCGGTTTTCCCGGTAATCCGTATTTGAC (site TGGACTACTGT) | 0.901
20 | AGCATTTCATGGACCGGTTTTCCCGGTAATCCGTATTTGAC (site AGCCTTTCTGT) | 0
21 | GACACGCCATGGACCGGTTTTCCCGGTAATCCGTATTTGTA (site GACACGCCTTA) | 0.0256
22 | AAGTCGCCATGGACCGGTTTTCCCGGTAATCCGTATTTGAC (site AAGTCGCCTGT) | 0
23 | CGTTAAGCATGGACCGGTTTTCCCGGTAATCCGTATTTGGC (site CGTTAAGCTGC) | 1.73
24 | CTCCCTACATGGACCGGTTTTCCCGGTAATCCGTATTTGAT (site CTCCCTACTTT) | 0.0164
25 | CGGCTGGCATGGACCGGTTTTCCCGGTAATCCGTATTTGGT (site CGGCTGGCTAC) | 1.17

Row | Sequence | recombinant UMI read abundance (log10)
26 | CTGGAACCATGGACCGGTTTTCCCGGTAATCCGTATTTGCA (site CTGGAAGCTTG) | 0.00806
27 | ATCCAAGCATGGACCGGTTTTCCCGGTAATCCGTATTTGAA (site ATCCAAGCTGT) | 0.751
28 | CACTCCTCATGGACCGGTTTTCCCGGTAATCCGTATTTGAC (site CACTCCTCTGC) | 1.9
29 | ACGCGAACATGGACCGGTTTTCCCGGTAATCCGTATTTGTC (site ACACGAACTGA) | 2.62
30 | GACGCCACATGGACCGGTTTTCCCGGTAATCCGTATTTGAA (site GACGCCACTTT) | 0.827
31 | ACGTTAGCATGGACCGGTTTTCCCGGTAATCCGTATTTGAT (site ACGTTAGCTAT) | 2.62
32 | TCGGCTACATGGACCGGTTTTCCCGGTAATCCGTATTTGCC (site TCGGCTACTGG) | 0
33 | CGATCATCATGGACCGGTTTTCCCGGTAATCCGTATTTGCC (site CGATCATCTAG) | 0
34 | GGCAATCCATGGACCGGTTTTCCCGGTAATCCGTATTTGAA (site GGCAAGCCTTT) | 0.0191
35 | GTCTATACATGGACCGGTTTTCCCGGTAATCCGTATTTGGA (site GTCTATACTTC) | 1.08
36 | CTACTAACATGGACCGGTTTTCCCGGTAATCCGTATTTGGA (site CTACTAACTTG) | 1.13
37 | AGACGCACATGGACCGGTTTTCCCGGTAATCCGTATTTGTT (site AGACGCACTAA) | 1.79
38 | GCTACCTCATGGACCGGTTTTCCCGGTAATCCGTATTTGGC (site GCTACCTCTGC) | 2.47
39 | GTACGTACATGGACCGGTTTTCCCGGTAATCCGTATTTGAC (site GTAAGTACTGT) | 0.00784
40 | CACGGCCCATGGACCGGTTTTCCCGGTAATCCGTATTTGCT (site CACGGCCCTAA) | 0.0432
41 | AAGGACGCATGGACCGGTTTTCCCGGTAATCCGTATTTGGG (site AAGGACGCTCC) | 0.789
42 | TAGTAGTCATGGACCGGTTTTCCCGGTAATCCGTATTTGGG (site TAGTAGTCTCC) | 0.369
43 | AGCCTTTCATGGACCGGTTTTCCCGGTAATCCGTATTTGAC (site AGCCTTTCTGA) | 0
44 | TTTCTAGCATGGACCGGTTTTCCCGGTAATCCGTATTTGTA (site TTTCTAGCTTA) | 0.542
45 | CCCGTCCCATGGACCGGTTTTCCCGGTAATCCGTATTTGGA (site CCCGTCCCTTC) | 0.00421
46 | CCTAATTCATGGACCGGTTTTCCCGGTAATCCGTATTTGGC (site CCTAATCCTGC) | 0
47 | ACACGAACATGGACCGGTTTTCCCGGTAATCCGTATTTGTC (site ACACCAACTGA) | 0
48 | ACAGTACCATGGACCGGTTTTCCCGGTAATCCGTATTTGAA (site ACAGTACCTTT) | 0.501
49 | CTATTAACATGGACCGGTTTTCCCGGTAATCCGTATTTGGA (site CTATTAACTTC) | 1.64
50 | TCATCTCCATGGACCGGTTTTCCCGGTAATCCGTATTTGTC (site TCATCTCCTGA) | 0

Row | Sequence | recombinant UMI read abundance (log10)
51 | CACTGCCCATGGACCGGTTTTCCCGGTAATCCGTATTTGTT (site CACTGCCCTAA) | 0.276
52 | GTATTATCATGGACCGGTTTTCCCGGTAATCCGTATTTGAC (site CTAGTATCTGT) | 1.38
53 | CGCGGAGCATGGACCGGTTTTCCCGGTAATCCGTATTTGGC (site CGCGGAGCTGC) | 0.884
54 | TATCTATCATGGACCGGTTTTCCCGGTAATCCGTATTTGTC (site TATCTATCTGA) | 1.59
55 | GCAACGCCATGGACCGGTTTTCCCGGTAATCCGTATTTGTA (site GCGACGCCTTA) | 0.015
56 | CTAGAAACATGGACCGGTTTTCCCGGTAATCCGTATTTGAC (site CTAGAAACTGT) | 2.76
57 | GTAGTCGCATGGACCGGTTTTCCCGGTAATCCGTATTTGCG (site GTGGTCGCTCG) | 0.0189
58 | CCGTGTGCATGGACCGGTTTTCCCGGTAATCCGTATTTGAC (site CCGTGTGCTGT) | 1
59 | TAGCTCACATGGACCGGTTTTCCCGGTAATCCGTATTTGAT (site AAGCTCACTAT) | 0.00391
60 | TCTAATACATGGACCGGTTTTCCCGGTAATCCGTATTTGGT (site TCTAATACTAC) | 0.0331
61 | AATCCCACATGGACCGGTTTTCCCGGTAATCCGTATTTGCT (site AATCCCACTAG) | 1.77
62 | CACTATGCATGGACCGGTTTTCCCGGTAATCCGTATTTGCG (site CACTATGCTCG) | 1.67
63 | CGCCATCCATGGACCGGTTTTCCCGGTAATCCGTATTTGTT (site CGGAATCCTAA) | 0
64 | GGTCCCACATGGACCGGTTTTCCCGGTAATCCGTATTTGTA (site GGTCCAACTTA) | 0
65 | CAAGTCACATGGACCGGTTTTCCCGGTAATCCGTATTTGGG (site CAAGTCCCTCC) | 0.0287
66 | TTACAACCATGGACCGGTTTTCCCGGTAATCCGTATTTGCA (site TTACAACCTTG) | 0
67 | ATAGGTGCATGGACCGGTTTTCCCGGTAATCCGTATTTGGC (site ATAGGTGCTGC) | 3.17
68 | CTCAAAGCATGGACCGGTTTTCCCGGTAATCCGTATTTGCG (site CTCAAAGCTCG) | 0.762
69 | AGCCTAGCATGGACCGGTTTTCCCGGTAATCCGTATTTGTT (site AGCCTAGCTGA) | 0
70 | CGATCAACATGGACCGGTTTTCCCGGTAATCCGTATTTGCT (site CGATCATCTAG) | 0
71 | CTTGAGACATGGACCGGTTTTCCCGGTAATCCGTATTTGGT (site TTTGAGACTAC) | 0.00972
72 | AAACTGTCATGGACCGGTTTTCCCGGTAATCCGTATTTGTT (site AAACTGTCTAA) | 1.97
73 | GTGCCTGCATGGACCGGTTTTCCCGGTAATCCGTATTTGGT (site GTGCGTGCTAC) | 0.00453
74 | CACGGCCCATGGACCGGTTTTCCCGGTAATCCGTATTTGTG (site CACGGCCCTAA) | 0.0211
75 | TAGCTACCATGGACCGGTTTTCCCGGTAATCCGTATTTGAA (site TAGCTAACTTT) | 0.00682
